{
  "source": "ChEMBL document CHEMBL1133972",
  "about": "“Solid-Phase synthesis of a library constructed of aromatic phosphate, long alkyl chains and tryptophane components, and identification of potent dipeptide telomerase inhibitors” (Bioorg Med Chem Lett, 2001)",
  "data": [
    {"target": "Telomerase reverse transcriptase (Homo sapiens, UniProt O14746)", "sequence (O14746 whole entry)": "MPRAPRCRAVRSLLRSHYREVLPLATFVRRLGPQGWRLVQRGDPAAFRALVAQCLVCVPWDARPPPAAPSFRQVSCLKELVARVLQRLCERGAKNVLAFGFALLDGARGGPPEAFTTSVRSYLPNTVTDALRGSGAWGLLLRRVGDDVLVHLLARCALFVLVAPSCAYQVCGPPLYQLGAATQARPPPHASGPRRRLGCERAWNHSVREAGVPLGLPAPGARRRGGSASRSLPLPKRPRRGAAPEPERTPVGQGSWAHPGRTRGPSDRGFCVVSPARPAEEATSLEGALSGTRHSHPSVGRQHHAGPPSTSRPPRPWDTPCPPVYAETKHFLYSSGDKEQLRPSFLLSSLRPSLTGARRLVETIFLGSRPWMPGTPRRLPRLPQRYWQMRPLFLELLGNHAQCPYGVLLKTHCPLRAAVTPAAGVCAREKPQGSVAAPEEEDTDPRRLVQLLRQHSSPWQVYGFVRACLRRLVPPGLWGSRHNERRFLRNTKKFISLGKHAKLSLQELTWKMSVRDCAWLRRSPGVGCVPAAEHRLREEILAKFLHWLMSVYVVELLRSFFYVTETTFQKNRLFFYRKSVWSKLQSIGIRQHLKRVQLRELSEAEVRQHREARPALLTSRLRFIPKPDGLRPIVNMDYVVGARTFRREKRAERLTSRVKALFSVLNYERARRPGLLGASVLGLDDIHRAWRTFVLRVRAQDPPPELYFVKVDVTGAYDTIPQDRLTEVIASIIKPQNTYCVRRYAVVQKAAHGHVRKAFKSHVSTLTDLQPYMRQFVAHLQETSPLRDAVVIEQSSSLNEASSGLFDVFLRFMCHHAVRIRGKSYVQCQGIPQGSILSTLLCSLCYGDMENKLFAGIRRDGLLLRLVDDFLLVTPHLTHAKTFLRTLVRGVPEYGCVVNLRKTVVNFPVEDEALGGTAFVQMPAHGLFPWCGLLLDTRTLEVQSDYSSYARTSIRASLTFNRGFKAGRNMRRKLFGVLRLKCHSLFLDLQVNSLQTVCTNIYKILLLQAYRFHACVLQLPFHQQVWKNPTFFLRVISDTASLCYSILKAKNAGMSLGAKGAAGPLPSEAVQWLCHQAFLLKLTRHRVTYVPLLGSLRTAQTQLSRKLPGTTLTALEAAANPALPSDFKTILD", "test": "Inhibitory activity against telomerase extracted from HCT 116 cell lines", "format": "cell-free", "units": {"IC50": "µM"}, "values": [
      {"smiles": "N[C@H](Cc1c[nH]c2ccccc12)C(=O)NCCCCCCCCCCCCOP(=O)(O)Oc1ccccc1Cl", "IC50": 45.2},
      {"smiles": "CC(C)(C)OC(=O)N[C@H](Cc1cc2ccccc2[nH]1)C(=O)N[C@H](Cc1c[nH]c2ccccc12)C(=O)NCCCC(=O)NCC(=O)NCCCCCCOP(=O)(O)Oc1ccccc1Cl", "IC50": "> 100"},
      {"smiles": "Cc1cn(CCCn2cc(CC(=O)NCCCCCCOP(=O)(O)Oc3ccccc3Cl)c3ccccc32)c2ccccc12", "IC50": 29.4},
      {"smiles": "O=C(N[C@H](Cc1c[nH]c2ccccc12)C(=O)NCCCCCCCCCCCCOP(=O)(O)Oc1ccccc1Cl)[C@H]1CCCN1", "IC50": "> 100"},
      {"smiles": "N[C@H](CCC(=O)O)C(=O)N[C@H](Cc1c[nH]c2ccccc12)C(=O)NCCCCCCCCCCCCOP(=O)(O)Oc1ccccc1Cl", "IC50": "> 100"},
      {"smiles": "O=C(CCCc1c[nH]c2ccccc12)NCCCCCCCCCCCCOP(=O)(O)Oc1ccccc1Cl", "IC50": 29.7},
      {"smiles": "N[C@H](Cc1c[nH]c2ccccc12)C(=O)NCCCCCCOP(=O)(O)Oc1ccccc1Cl", "IC50": "> 100"},
      {"smiles": "CC(C)(C)OC(=O)N[C@H](Cc1ccccc1)C(=O)N[C@H](Cc1c[nH]c2ccccc12)C(=O)NCCCCCCCCCCCCOP(=O)(O)Oc1ccccc1Cl", "IC50": 6.8},
      {"smiles": "O=C(N[C@H](Cc1c[nH]c2ccccc12)C(=O)NCCCCCCCCCCCCOP(=O)(O)Oc1ccccc1Cl)c1ccccc1", "IC50": 7.3},
      {"smiles": "CC(C)(C)OC(=O)N[C@@H](Cc1ccccc1)C(=O)N[C@H](Cc1c[nH]c2ccccc12)C(=O)NCCCCCCCCCCCCOP(=O)(O)Oc1ccccc1Cl", "IC50": "> 100"},
      {"smiles": "CC(C)(C)OC(=O)N[C@H](Cc1c[nH]c2ccccc12)C(=O)NCCCCCCOP(=O)(O)Oc1ccccc1Cl", "IC50": "> 100"},
      {"smiles": "O=C(N[C@H](Cc1c[nH]c2ccccc12)C(=O)NCCCCCCCCCCCCOP(=O)(O)Oc1ccccc1Cl)OCc1ccccc1", "IC50": 3.6},
      {"smiles": "CC(C)(C)OC(=O)N[C@H](CCC(=O)O)C(=O)N[C@H](Cc1c[nH]c2ccccc12)C(=O)NCCCCCCCCCCCCOP(=O)(O)Oc1ccccc1Cl", "IC50": "> 100"},
      {"smiles": "Cc1cn(CCCn2cc(CC(=O)NCCCC(=O)NCC(=O)NCCCCCCOP(=O)(O)Oc3ccccc3Cl)c3ccccc32)c2ccccc12", "IC50": "> 100"},
      {"smiles": "CC(C)(C)OC(=O)N[C@@H](Cc1cc2ccccc2[nH]1)C(=O)N[C@@H](Cc1c[nH]c2ccccc12)C(=O)NCCCC(=O)NCC(=O)NCCCCCCOP(=O)(O)Oc1ccccc1Cl", "IC50": "> 100"},
      {"smiles": "N[C@@H](Cc1cc2ccccc2[nH]1)C(=O)N[C@@H](Cc1c[nH]c2ccccc12)C(=O)NCCCCCCCCCCCCOP(=O)(O)Oc1ccccc1Cl", "IC50": 11.1},
      {"smiles": "CC(C)(C)OC(=O)N[C@@H](Cc1cc2ccccc2[nH]1)C(=O)N[C@H](Cc1c[nH]c2ccccc12)C(=O)NCCCC(=O)NCC(=O)NCCCCCCOP(=O)(O)Oc1ccccc1Cl", "IC50": "> 100"},
      {"smiles": "N[C@H](Cc1ccccc1)C(=O)N[C@H](Cc1c[nH]c2ccccc12)C(=O)NCCCCCCCCCCCCOP(=O)(O)Oc1ccccc1Cl", "IC50": 22.1},
      {"smiles": "Cc1cn(CCCn2cc(CC(=O)NCCCC(=O)N3CCCC3C(=O)NCCCCCCOP(=O)(O)Oc3ccccc3Cl)c3ccccc32)c2ccccc12", "note": "(stereo not drawn)", "IC50": 46.9},
      {"smiles": "Cc1cn(CCCn2cc(CC(=O)NCCOCCOCCOCCOP(=O)(O)Oc3ccccc3Cl)c3ccccc32)c2ccccc12", "IC50": "> 100"},
      {"smiles": "CC(C)(C)OC(=O)N[C@H](Cc1cc2ccccc2[nH]1)C(=O)N[C@H](Cc1c[nH]c2ccccc12)C(=O)NCCCCCCCCCCCCOP(=O)(O)Oc1ccccc1Cl", "IC50": 18.9},
      {"smiles": "CC(C)(C)OC(=O)N[C@@H](Cc1cc2ccccc2[nH]1)C(=O)N[C@@H](Cc1c[nH]c2ccccc12)C(=O)NCCCCCCCCCCCCOP(=O)(O)Oc1ccccc1Cl", "IC50": 0.3},
      {"smiles": "O=C(CNC(=O)OCc1ccccc1)N[C@H](Cc1c[nH]c2ccccc12)C(=O)NCCCCCCCCCCCCOP(=O)(O)Oc1ccccc1Cl", "IC50": 12.1},
      {"smiles": "N[C@@H](Cc1cc2ccccc2[nH]1)C(=O)N[C@@H](Cc1c[nH]c2ccccc12)C(=O)NCCCC(=O)NCC(=O)NCCCCCCOP(=O)(O)Oc1ccccc1Cl", "IC50": "> 100"},
      {"smiles": "Cc1cn(CCCn2cc(CC(=O)NCCCCCCCCCCCCOP(=O)(O)Oc3ccccc3Cl)c3ccccc32)c2ccccc12", "IC50": 3.6},
      {"smiles": "CC(=O)N[C@H](Cc1c[nH]c2ccccc12)C(=O)NCCCCCCCCCCCCOP(=O)(O)Oc1ccccc1Cl", "IC50": 90.7},
      {"smiles": "CC(C)(C)OC(=O)N[C@H](Cc1c[nH]c2ccccc12)C(=O)NCCCCCCCCCCCCOP(=O)(O)Oc1ccccc1Cl", "IC50": 18.3},
      {"smiles": "CC(C)(C)OC(=O)N[C@@H](Cc1c[nH]c2ccccc12)C(=O)NCCCCCCCCCCCCOP(=O)(O)Oc1ccccc1Cl", "IC50": 20.7},
      {"smiles": "N[C@@H](Cc1c[nH]c2ccccc12)C(=O)NCCCCCCCCCCCCOP(=O)(O)Oc1ccccc1Cl", "IC50": 15.1},
      {"smiles": "O=C(Cc1c[nH]c2ccccc12)NCCCCCCCCCCCCOP(=O)(O)Oc1ccccc1Cl", "IC50": 33.9},
      {"smiles": "N[C@@H](Cc1cc2ccccc2[nH]1)C(=O)N[C@H](Cc1c[nH]c2ccccc12)C(=O)NCCCC(=O)NCC(=O)NCCCCCCOP(=O)(O)Oc1ccccc1Cl", "IC50": "> 100"},
      {"smiles": "O=C(N[C@H](Cc1ccccc1)C(=O)NCCCCCCCCCCCCOP(=O)(O)Oc1ccccc1Cl)OCc1ccccc1", "IC50": "> 100"},
      {"smiles": "CC(C)(C)OC(=O)N1CCC[C@@H]1C(=O)N[C@H](Cc1c[nH]c2ccccc12)C(=O)NCCCCCCCCCCCCOP(=O)(O)Oc1ccccc1Cl", "IC50": 9.5},
      {"smiles": "CC(=O)N[C@H](Cc1cc2ccccc2[nH]1)C(=O)N[C@H](Cc1c[nH]c2ccccc12)C(=O)NCCCCCCCCCCCCOP(=O)(O)Oc1ccccc1Cl", "IC50": 22.9},
      {"smiles": "CC(C)(C)OC(=O)N[C@H](CCC(=O)OCc1ccccc1)C(=O)N[C@H](Cc1c[nH]c2ccccc12)C(=O)NCCCCCCCCCCCCOP(=O)(O)Oc1ccccc1Cl", "IC50": 6.4},
      {"smiles": "N[C@H](Cc1cc2ccccc2[nH]1)C(=O)N[C@H](Cc1c[nH]c2ccccc12)C(=O)NCCCC(=O)NCC(=O)NCCCCCCOP(=O)(O)Oc1ccccc1Cl", "IC50": "> 100"},
      {"smiles": "N[C@H](Cc1cc2ccccc2[nH]1)C(=O)N[C@H](Cc1c[nH]c2ccccc12)C(=O)NCCCCCCCCCCCCOP(=O)(O)Oc1ccccc1Cl", "IC50": 13.7},
      {"smiles": "CC(C)(C)OC(=O)N[C@H](Cc1cc2ccccc2[nH]1)C(=O)N[C@@H](Cc1c[nH]c2ccccc12)C(=O)NCCCC(=O)NCC(=O)NCCCCCCOP(=O)(O)Oc1ccccc1Cl", "note": "(mixture of isomers)", "IC50": "> 100"},
      {"smiles": "N[C@H](Cc1cc2ccccc2[nH]1)C(=O)N[C@@H](Cc1c[nH]c2ccccc12)C(=O)NCCCCCCCCCCCCOP(=O)(O)Oc1ccccc1Cl", "note": "(mixture of isomers)", "IC50": 10.6},
      {"smiles": "N[C@@H](Cc1ccccc1)C(=O)N[C@H](Cc1c[nH]c2ccccc12)C(=O)NCCCCCCCCCCCCOP(=O)(O)Oc1ccccc1Cl", "note": "(mixture of isomers)", "IC50": "> 100"},
      {"smiles": "CC(C)(C)OC(=O)N[C@@H](Cc1cc2ccccc2[nH]1)C(=O)N[C@H](Cc1c[nH]c2ccccc12)C(=O)NCCCCCCCCCCCCOP(=O)(O)Oc1ccccc1Cl", "note": "(mixture of isomers)", "IC50": "> 100"},
      {"smiles": "N[C@H](Cc1cc2ccccc2[nH]1)C(=O)N[C@@H](Cc1c[nH]c2ccccc12)C(=O)NCCCC(=O)NCC(=O)NCCCCCCOP(=O)(O)Oc1ccccc1Cl", "note": "(racemic)", "IC50": "> 100"},
      {"smiles": "CC(C)(C)OC(=O)N[C@H](Cc1cc2ccccc2[nH]1)C(=O)N[C@@H](Cc1c[nH]c2ccccc12)C(=O)NCCCCCCCCCCCCOP(=O)(O)Oc1ccccc1Cl", "note": "(racemic)", "IC50": "> 100"}
    ]}
  ]
}
